Laboratory results taken from US20230049952A1, “METHODS AND COMPOUNDS FOR RESTORING MUTANT P53 FUNCTION” (PMV Pharmaceuticals, Inc., priority 2020, published 2023).

Test system: NF-κB signaling pathway in MT373 tumors
Test: MT373 syngeneic sarcoma model: mouse NF-κB signaling pathway profiling panel
Assay type: in vivo

In the case of `CCn1c(C#CCNc2ccccc2)cc2cc(CNC3CCN(C)CC3)ccc21` [Compound 1, 1-Anilino-3-{1-ethyl-5-[(1-methyl-4-piperidylamino)methyl]-1H-indol-2-yl}-2-propyne], the “Agt fold increase over or percent reduction vs vehicle control” value (150 mg/kg BIDx1, 24 h) is reported as 8.18 ± 30.61 fold or %, the “Akt1 fold increase over or percent reduction vs vehicle control” value (150 mg/kg BIDx1, 24 h) is reported as 17.84 ± 6.63 fold or % and the “Atf1 fold increase over or percent reduction vs vehicle control” value (150 mg/kg BIDx1, 24 h) is reported as 42.27 ± 2.47 fold or %. For the same compound, the “Atf2 fold increase over or percent reduction vs vehicle control” value (150 mg/kg BIDx1, 24 h) was 24.19 ± 2.49 fold or %, the “Bcl2a1a fold increase over or percent reduction vs vehicle control” value (150 mg/kg BIDx1, 24 h) was 39.52 ± 5.46 fold or % and the “Bcl2l1 fold increase over or percent reduction vs vehicle control” value (150 mg/kg BIDx1, 24 h) was 1.43 ± 0.11 fold or %. For the same compound, the “Bcl3 fold increase over or percent reduction vs vehicle control” value (150 mg/kg BIDx1, 24 h) was 1.29 ± 0.31 fold or %, the “Bcl10 fold increase over or percent reduction vs vehicle control” value (150 mg/kg BIDx1, 24 h) was 38.94 ± 3.05 fold or % and the “Birc3 fold increase over or percent reduction vs vehicle control” value (150 mg/kg BIDx1, 24 h) was 1.03 ± 0.07 fold or %. For the same compound, the “Card10 fold increase over or percent reduction vs vehicle control” value (150 mg/kg BIDx1, 24 h) was 1.32 ± 0.33 fold or %, the “Card11 fold increase over or percent reduction vs vehicle control” value (150 mg/kg BIDx1, 24 h) was 1.14 ± 0.14 fold or % and the “Casp1 fold increase over or percent reduction vs vehicle control” value (150 mg/kg BIDx1, 24 h) was 14.78 ± 4.65 fold or %. The “Casp8 fold increase over or percent reduction vs vehicle control” value (150 mg/kg BIDx1, 24 h) was 9.24 ± 3.65 fold or %, the “Ccl2 fold increase over or percent reduction vs vehicle control” value (150 mg/kg BIDx1, 24 h) was 57.69 ± 14.13 fold or % and the “Ccl5 fold increase over or percent reduction vs vehicle control” value (150 mg/kg BIDx1, 24 h) was 21.82 ± 7.86 fold or %. For the same compound, the “Cd27 fold increase over or percent reduction vs vehicle control” value (150 mg/kg BIDx1, 24 h) was 1.11 ± 0.11 fold or %, the “Cd40 fold increase over or percent reduction vs vehicle control” value (150 mg/kg BIDx1, 24 h) was 30.05 ± 5.34 fold or % and the “Cflar fold increase over or percent reduction vs vehicle control” value (150 mg/kg BIDx1, 24 h) was 1.01 ± 0.08 fold or %. The “Chuk fold increase over or percent reduction vs vehicle control” value (150 mg/kg BIDx1, 24 h) was 1.03 ± 0.07 fold or %, the “Crebbp fold increase over or percent reduction vs vehicle control” value (150 mg/kg BIDx1, 24 h) was 1.07 ± 0.06 fold or % and the “Csf1 fold increase over or percent reduction vs vehicle control” value (150 mg/kg BIDx1, 24 h) was 14.27 ± 12.28 fold or %. The “Csf2 fold increase over or percent reduction vs vehicle control” value (150 mg/kg BIDx1, 24 h) was 61.29 ± 2.87 fold or %, the “Csf3 fold increase over or percent reduction vs vehicle control” value (150 mg/kg BIDx1, 24 h) was 27.25 ± 12.00 fold or % and the “Egfr fold increase over or percent reduction vs vehicle control” value (150 mg/kg BIDx1, 24 h) was 28.45 ± 5.44 fold or %. For the same compound, the “Egr1 fold increase over or percent reduction vs vehicle control” value (150 mg/kg BIDx1, 24 h) was 37.93 ± 8.71 fold or %, the “Eif2ak2 fold increase over or percent reduction vs vehicle control” value (150 mg/kg BIDx1, 24 h) was 1.05 ± 0.10 fold or % and the “Elk1 fold increase over or percent reduction vs vehicle control” value (150 mg/kg BIDx1, 24 h) was 12.50 ± 9.71 fold or %. For the same compound, the “F2r fold increase over or percent reduction vs vehicle control” value (150 mg/kg BIDx1, 24 h) was 40.30 ± 2.19 fold or %, the “Fadd fold increase over or percent reduction vs vehicle control” value (150 mg/kg BIDx1, 24 h) was 5.03 ± 3.48 fold or % and the “Fasl fold increase over or percent reduction vs vehicle control” value (150 mg/kg BIDx1, 24 h) was 31.85 ± 3.66 fold or %. The “Fos fold increase over or percent reduction vs vehicle control” value (150 mg/kg BIDx1, 24 h) was 12.09 ± 14.97 fold or %, the “Hmox1 fold increase over or percent reduction vs vehicle control” value (150 mg/kg BIDx1, 24 h) was 13.99 ± 4.70 fold or % and the “Icam1 fold increase over or percent reduction vs vehicle control” value (150 mg/kg BIDx1, 24 h) was 1.20 ± 0.24 fold or %. The “Ifng fold increase over or percent reduction vs vehicle control” value (150 mg/kg BIDx1, 24 h) was 35.82 ± 11.11 fold or %, the “Ikbkb fold increase over or percent reduction vs vehicle control” value (150 mg/kg BIDx1, 24 h) was 1.13 ± 0.20 fold or % and the “Ikbke fold increase over or percent reduction vs vehicle control” value (150 mg/kg BIDx1, 24 h) was 1.48 ± 0.37 fold or %. For the same compound, the “Ikbkg fold increase over or percent reduction vs vehicle control” value (150 mg/kg BIDx1, 24 h) was 1.07 ± 0.09 fold or %, the “Il1a fold increase over or percent reduction vs vehicle control” value (150 mg/kg BIDx1, 24 h) was 13.50 ± 23.10 fold or % and the “Il1b fold increase over or percent reduction vs vehicle control” value (150 mg/kg BIDx1, 24 h) was 63.25 ± 18.78 fold or %. For the same compound, the “Il1r1 fold increase over or percent reduction vs vehicle control” value (150 mg/kg BIDx1, 24 h) was 31.14 ± 6.16 fold or %, the “Il10 fold increase over or percent reduction vs vehicle control” value (150 mg/kg BIDx1, 24 h) was 1.52 ± 0.15 fold or % and the “Irak1 fold increase over or percent reduction vs vehicle control” value (150 mg/kg BIDx1, 24 h) was 1.93 ± 9.47 fold or %. The “Irak2 fold increase over or percent reduction vs vehicle control” value (150 mg/kg BIDx1, 24 h) was 24.86 ± 5.53 fold or %, the “Irf1 fold increase over or percent reduction vs vehicle control” value (150 mg/kg BIDx1, 24 h) was 4.44 ± 20.95 fold or % and the “Jun fold increase over or percent reduction vs vehicle control” value (150 mg/kg BIDx1, 24 h) was 29.31 ± 10.13 fold or %. The “Lta fold increase over or percent reduction vs vehicle control” value (150 mg/kg BIDx1, 24 h) was 12.59 ± 29.28 fold or %, the “Ltbr fold increase over or percent reduction vs vehicle control” value (150 mg/kg BIDx1, 24 h) was 11.61 ± 7.41 fold or % and the “Map3k1 fold increase over or percent reduction vs vehicle control” value (150 mg/kg BIDx1, 24 h) was 1.40 ± 0.14 fold or %. The “Mapk3 fold increase over or percent reduction vs vehicle control” value (150 mg/kg BIDx1, 24 h) was 10.05 ± 3.02 fold or %, the “Myd88 fold increase over or percent reduction vs vehicle control” value (150 mg/kg BIDx1, 24 h) was 1.33 ± 0.11 fold or % and the “Nfkb1 fold increase over or percent reduction vs vehicle control” value (150 mg/kg BIDx1, 24 h) was 1.39 ± 12.08 fold or %. For the same compound, the “Nfkb2 fold increase over or percent reduction vs vehicle control” value (150 mg/kg BIDx1, 24 h) was 1.01 ± 0.29 fold or %, the “Nfkbia fold increase over or percent reduction vs vehicle control” value (150 mg/kg BIDx1, 24 h) was 3.07 ± 2.68 fold or % and the “Nod1 fold increase over or percent reduction vs vehicle control” value (150 mg/kg BIDx1, 24 h) was 1.24 ± 0.24 fold or %. For the same compound, the “Raf1 fold increase over or percent reduction vs vehicle control” value (150 mg/kg BIDx1, 24 h) was 11.54 ± 3.56 fold or %, the “Rel fold increase over or percent reduction vs vehicle control” value (150 mg/kg BIDx1, 24 h) was 1.09 ± 0.06 fold or % and the “Rela fold increase over or percent reduction vs vehicle control” value (150 mg/kg BIDx1, 24 h) was 1.02 ± 0.07 fold or %. The “Relb fold increase over or percent reduction vs vehicle control” value (150 mg/kg BIDx1, 24 h) was 1.10 ± 0.14 fold or %, the “Ripk1 fold increase over or percent reduction vs vehicle control” value (150 mg/kg BIDx1, 24 h) was 1.25 ± 0.04 fold or % and the “Ripk2 fold increase over or percent reduction vs vehicle control” value (150 mg/kg BIDx1, 24 h) was 27.80 ± 7.83 fold or %. The “Slc20a1 fold increase over or percent reduction vs vehicle control” value (150 mg/kg BIDx1, 24 h) was 29.02 ± 4.69 fold or %, the “Smad3 fold increase over or percent reduction vs vehicle control” value (150 mg/kg BIDx1, 24 h) was 4.92 ± 19.78 fold or % and the “Stat1 fold increase over or percent reduction vs vehicle control” value (150 mg/kg BIDx1, 24 h) was 1.17 ± 0.19 fold or %. The “Tbk1 fold increase over or percent reduction vs vehicle control” value (150 mg/kg BIDx1, 24 h) was 6.71 ± 4.73 fold or %, the “Tlr1 fold increase over or percent reduction vs vehicle control” value (150 mg/kg BIDx1, 24 h) was 1.17 ± 0.16 fold or % and the “Tlr2 fold increase over or percent reduction vs vehicle control” value (150 mg/kg BIDx1, 24 h) was 4.13 ± 15.48 fold or %. The “Tlr3 fold increase over or percent reduction vs vehicle control” value (150 mg/kg BIDx1, 24 h) was 1.08 ± 0.12 fold or %, the “Tlr4 fold increase over or percent reduction vs vehicle control” value (150 mg/kg BIDx1, 24 h) was 1.11 ± 0.05 fold or % and the “Tlr6 fold increase over or percent reduction vs vehicle control” value (150 mg/kg BIDx1, 24 h) was 1.04 ± 0.10 fold or %. The “Tlr9 fold increase over or percent reduction vs vehicle control” value (150 mg/kg BIDx1, 24 h) was 1.33 ± 0.19 fold or %, the “Tnf fold increase over or percent reduction vs vehicle control” value (150 mg/kg BIDx1, 24 h) was 1.84 ± 47.89 fold or % and the “Tnfaip3 fold increase over or percent reduction vs vehicle control” value (150 mg/kg BIDx1, 24 h) was 3.01 ± 14.38 fold or %. The “Tnfrsf1a fold increase over or percent reduction vs vehicle control” value (150 mg/kg BIDx1, 24 h) was 1.21 ± 0.13 fold or %, the “Tnfrsf1b fold increase over or percent reduction vs vehicle control” value (150 mg/kg BIDx1, 24 h) was 1.23 ± 0.12 fold or % and the “Tnfrsf10b fold increase over or percent reduction vs vehicle control” value (150 mg/kg BIDx1, 24 h) was 2.61 ± 0.31 fold or %. The “Tnfsf10 fold increase over or percent reduction vs vehicle control” value (150 mg/kg BIDx1, 24 h) was 18.51 ± 14.05 fold or %, the “Tnfsf14 fold increase over or percent reduction vs vehicle control” value (150 mg/kg BIDx1, 24 h) was 1.11 ± 0.17 fold or % and the “Tollip fold increase over or percent reduction vs vehicle control” value (150 mg/kg BIDx1, 24 h) was 1.01 ± 0.06 fold or %. For the same compound, the “Tradd fold increase over or percent reduction vs vehicle control” value (150 mg/kg BIDx1, 24 h) was 1.17 ± 0.08 fold or %, the “Traf2 fold increase over or percent reduction vs vehicle control” value (150 mg/kg BIDx1, 24 h) was 8.21 ± 7.59 fold or % and the “Traf3 fold increase over or percent reduction vs vehicle control” value (150 mg/kg BIDx1, 24 h) was 13.02 ± 10.57 fold or %. For the same compound, the “Traf5 fold increase over or percent reduction vs vehicle control” value (150 mg/kg BIDx1, 24 h) was 21.79 ± 2.60 fold or %, the “Traf6 fold increase over or percent reduction vs vehicle control” value (150 mg/kg BIDx1, 24 h) was 1.03 ± 0.16 fold or % and the “Zap70 fold increase over or percent reduction vs vehicle control” value (150 mg/kg BIDx1, 24 h) was 1.01 ± 0.07 fold or %. The “Agt fold increase over or percent reduction vs vehicle control” value (150 mg/kg BIDx1, 48 h) was 1.60 ± 0.41 fold or %, the “Akt1 fold increase over or percent reduction vs vehicle control” value (150 mg/kg BIDx1, 48 h) was 4.50 ± 1.92 fold or % and the “Atf1 fold increase over or percent reduction vs vehicle control” value (150 mg/kg BIDx1, 48 h) was 42.46 ± 1.99 fold or %. For the same compound, the “Atf2 fold increase over or percent reduction vs vehicle control” value (150 mg/kg BIDx1, 48 h) was 30.02 ± 3.86 fold or %.
